According to patent US20240000872A1, “NOVEL BACTERIOPHAGE THAT LYSES ACINETOBACTER GENUS BACTERIA HAVING RESISTANCE TO ANTIBIOTICS” (priority 2020, published 2024):

Test system: Acinetobacter baumannii strains
Test: Antibiotic susceptibility test (CLSI disk diffusion test method, read per CLSI 2016)
Format: cell-based
Protocol: (§1) Strain identification was performed using a kit such as AT 32 GN system (bioMérieux, Marcy l'Etoile, France). […] In Table 2 below, S, I, and R are the results obtained by evaluating susceptibility to the antibacterial agents, in which ‘S’ means susceptible, ‘I’ means intermediate, and ‘R’ means resistant.
as §1, with “as ATB” for “as AT”, “system (bioMédrieux,” for “system (bioMérieux,”, “Table 6” for “Table 2”
as §1, with “as ATB” for “as AT”, “Table 10” for “Table 2”, “susceptible, T” for “susceptible, ‘I’”

C[C@@H](O)[C@H]1C(=O)N2C(C(=O)O)=C(SCCN=CN)C[C@H]12 [Imipenem, imipenem]
antibiotic susceptibility class (host strain YMC14/01/C29): R | antibiotic susceptibility class (host strain YMC14/01/IP122): R | antibiotic susceptibility class (host strain YMC14/01/L8): R | antibiotic susceptibility class (host strain YMC14/01/P31): R | antibiotic susceptibility class (host strain YMC14/01/P117): R | antibiotic susceptibility class (host strain YMC14/01/P224): R | antibiotic susceptibility class (host strain YMC14/01/P727): R | antibiotic susceptibility class (host strain YMC14/01/P728): R | antibiotic susceptibility class (host strain YMC14/01/R130): R | antibiotic susceptibility class (host strain YMC14/01/R160): R | antibiotic susceptibility class (host strain YMC14/01/R198): R | antibiotic susceptibility class (host strain YMC14/01/R257): R | antibiotic susceptibility class (host strain YMC14/01/R270): R | antibiotic susceptibility class (host strain YMC14/01/R324): R | antibiotic susceptibility class (host strain YMC14/01/R443): R | antibiotic susceptibility class (host strain YMC14/01/R451): R | antibiotic susceptibility class (host strain YMC14/01/R560): R | antibiotic susceptibility class (host strain YMC14/01/R617): R | antibiotic susceptibility class (host strain YMC14/01/R671): R | antibiotic susceptibility class (host strain YMC14/01/R732): R | antibiotic susceptibility class (host strain YMC14/01/R767): R | antibiotic susceptibility class (host strain YMC14/01/R904): R | antibiotic susceptibility class (host strain YMC14/01/R905): R | antibiotic susceptibility class (host strain YMC14/01/R921): R | antibiotic susceptibility class (host strain YMC14/01/R941): R | antibiotic susceptibility class (host strain YMC14/01/R958): R | antibiotic susceptibility class (host strain YMC14/01/R1006): R | antibiotic susceptibility class (host strain YMC14/01/R1199): R | antibiotic susceptibility class (host strain YMC14/01/R1659): R | antibiotic susceptibility class (host strain YMC14/01/R1722): R | antibiotic susceptibility class (host strain YMC14/01/R1752): R | antibiotic susceptibility class (host strain YMC14/01/R2429): R | antibiotic susceptibility class (host strain YMC14/01/R2572): R | antibiotic susceptibility class (host strain YMC14/01/R2855): R | antibiotic susceptibility class (host strain YMC14/01/R2945): R | antibiotic susceptibility class (host strain YMC14/01/R3007): R | antibiotic susceptibility class (host strain YMC14/01/R3129): R | antibiotic susceptibility class (host strain YMC14/01/R3317): R | antibiotic susceptibility class (host strain YMC14/01/R3474): R | antibiotic susceptibility class (host strain YMC14/01/R3574): R | antibiotic susceptibility class (host strain YMC14/01/U313): R | antibiotic susceptibility class (host strain YMC14/01/U318): R | antibiotic susceptibility class (host strain YMC14/02/L18): R | antibiotic susceptibility class (host strain YMC14/02/P47): R | antibiotic susceptibility class (host strain YMC14/02/R1860): R | antibiotic susceptibility class (host strain YMC14/02/R2417): R | antibiotic susceptibility class (host strain YMC14/02/R2599): R | antibiotic susceptibility class (host strain YMC14/02/R2668): R | antibiotic susceptibility class (host strain YMC14/02/R2758): R | antibiotic susceptibility class (host strain YMC14/02/R2781): R | antibiotic susceptibility class (host strain YMC14/02/R3106): R | antibiotic susceptibility class (host strain YMC14/02/R3419): R | antibiotic susceptibility class (host strain YMC14/02/U1607): R | antibiotic susceptibility class (host strain YMC14/03/L9): R | antibiotic susceptibility class (host strain YMC14/03/P471): R | antibiotic susceptibility class (host strain YMC14/03/R122): R | antibiotic susceptibility class (host strain YMC14/03/R217): R | antibiotic susceptibility class (host strain YMC14/03/R380): R | antibiotic susceptibility class (host strain YMC14/03/R618): R | antibiotic susceptibility class (host strain YMC14/03/R2144): R | antibiotic susceptibility class (host strain YMC14/03/U4616): R | antibiotic susceptibility class (host strain YMC14/04/R1078): R | antibiotic susceptibility class (host strain YMC14/04/R1080): R | antibiotic susceptibility S/I/R (host strain YMC14/06/R2359): R | susceptibility category (S/I/R) (host strain YMC14/06/R2359): R | antibiotic susceptibility S/I/R (host strain YMC14/08/R1169): R | susceptibility category (S/I/R) (host strain YMC14/08/R1169): R | antibiotic susceptibility S/I/R (host strain YMC14/08/T90): R | susceptibility category (S/I/R) (host strain YMC14/08/T90): R | antibiotic susceptibility S/I/R (host strain YMC15/02/R436): R | susceptibility category (S/I/R) (host strain YMC15/02/R436): R | antibiotic susceptibility S/I/R (host strain YMC15/02/T28): R | susceptibility category (S/I/R) (host strain YMC15/02/T28): R | antibiotic susceptibility S/I/R (host strain YMC15/03/R1604): R | susceptibility category (S/I/R) (host strain YMC15/03/R1604): R | antibiotic susceptibility S/I/R (host strain YMC15/09/R1869): R | susceptibility category (S/I/R) (host strain YMC15/09/R1869): R | antibiotic susceptibility S/I/R (host strain YMC16/01/P11): R | susceptibility category (S/I/R) (host strain YMC16/01/P11): R | antibiotic susceptibility S/I/R (host strain YMC16/01/R123): R | susceptibility category (S/I/R) (host strain YMC16/01/R123): R | antibiotic susceptibility S/I/R (host strain YMC16/01/R198): R | susceptibility category (S/I/R) (host strain YMC16/01/R198): R | antibiotic susceptibility S/I/R (host strain YMC16/01/R353): R | susceptibility category (S/I/R) (host strain YMC16/01/R353): R | antibiotic susceptibility S/I/R (host strain YMC16/01/R380): R | susceptibility category (S/I/R) (host strain YMC16/01/R380): R | antibiotic susceptibility S/I/R (host strain YMC16/01/R397): R | susceptibility category (S/I/R) (host strain YMC16/01/R397): R | antibiotic susceptibility S/I/R (host strain YMC16/01/R405): R | susceptibility category (S/I/R) (host strain YMC16/01/R405): R | antibiotic susceptibility S/I/R (host strain YMC16/03/R4461): R | susceptibility category (S/I/R) (host strain YMC16/03/R4461): R | antibiotic susceptibility S/I/R (host strain YMC16/05/R2210): R | susceptibility category (S/I/R) (host strain YMC16/05/R2210): R | antibiotic susceptibility S/I/R (host strain YMC16/07/R2512): R | susceptibility category (S/I/R) (host strain YMC16/07/R2512): R | antibiotic susceptibility S/I/R (host strain YMC16/09/R2471): R | susceptibility category (S/I/R) (host strain YMC16/09/R2471): R | antibiotic susceptibility S/I/R (host strain YMC16/10/R2537): R | susceptibility category (S/I/R) (host strain YMC16/10/R2537): R | antibiotic susceptibility S/I/R (host strain YMC16/12/B11422): R | susceptibility category (S/I/R) (host strain YMC16/12/B11422): R | antibiotic susceptibility S/I/R (host strain YMC16/12/B11449): R | susceptibility category (S/I/R) (host strain YMC16/12/B11449): R | antibiotic susceptibility S/I/R (host strain YMC16/12/B13325): R | susceptibility category (S/I/R) (host strain YMC16/12/B13325): R | antibiotic susceptibility S/I/R (host strain YMC16/12/P503): R | susceptibility category (S/I/R) (host strain YMC16/12/P503): R | antibiotic susceptibility S/I/R (host strain YMC16/12/R4637): R | susceptibility category (S/I/R) (host strain YMC16/12/R4637): R | antibiotic susceptibility S/I/R (host strain YMC17/01/B8053): R | susceptibility category (S/I/R) (host strain YMC17/01/B8053): R | antibiotic susceptibility S/I/R (host strain YMC17/01/B10087): R | susceptibility category (S/I/R) (host strain YMC17/01/B10087): R | antibiotic susceptibility S/I/R (host strain YMC17/01/B12075): R | susceptibility category (S/I/R) (host strain YMC17/01/B12075): R | antibiotic susceptibility S/I/R (host strain YMC17/01/B13454): R | susceptibility category (S/I/R) (host strain YMC17/01/B13454): R | antibiotic susceptibility S/I/R (host strain YMC17/01/P518): R | susceptibility category (S/I/R) (host strain YMC17/01/P518): R | antibiotic susceptibility S/I/R (host strain YMC17/01/R2812): R | susceptibility category (S/I/R) (host strain YMC17/01/R2812): R | antibiotic susceptibility S/I/R (host strain YMC17/02/B14): R | susceptibility category (S/I/R) (host strain YMC17/02/B14): R | antibiotic susceptibility S/I/R (host strain YMC17/02/B87): R | susceptibility category (S/I/R) (host strain YMC17/02/B87): R | antibiotic susceptibility S/I/R (host strain YMC17/02/B721): R | susceptibility category (S/I/R) (host strain YMC17/02/B721): R | antibiotic susceptibility S/I/R (host strain YMC17/02/B4039): R | susceptibility category (S/I/R) (host strain YMC17/02/B4039): R | antibiotic susceptibility S/I/R (host strain YMC17/02/B4520): R | susceptibility category (S/I/R) (host strain YMC17/02/B4520): R | antibiotic susceptibility S/I/R (host strain YMC17/02/B4864): S | susceptibility category (S/I/R) (host strain YMC17/02/B4864): S | antibiotic susceptibility S/I/R (host strain YMC17/02/B8414): R | susceptibility category (S/I/R) (host strain YMC17/02/B8414): R | antibiotic susceptibility S/I/R (host strain YMC17/02/P523): R | susceptibility category (S/I/R) (host strain YMC17/02/P523): R | antibiotic susceptibility S/I/R (host strain YMC17/02/R541): R | susceptibility category (S/I/R) (host strain YMC17/02/R541): R | antibiotic susceptibility S/I/R (host strain YMC17/02/R2392): R | susceptibility category (S/I/R) (host strain YMC17/02/R2392): R | antibiotic susceptibility S/I/R (host strain YMC17/03/B4730): R | susceptibility category (S/I/R) (host strain YMC17/03/B4730): R | antibiotic susceptibility S/I/R (host strain YMC17/03/B5000): R | susceptibility category (S/I/R) (host strain YMC17/03/B5000): R | antibiotic susceptibility S/I/R (host strain YMC17/03/P971): R | susceptibility category (S/I/R) (host strain YMC17/03/P971): R | antibiotic susceptibility S/I/R (host strain YMC17/03/R348): R | susceptibility category (S/I/R) (host strain YMC17/03/R348): R | antibiotic susceptibility S/I/R (host strain YMC17/03/R585): R | susceptibility category (S/I/R) (host strain YMC17/03/R585): R | antibiotic susceptibility S/I/R (host strain YMC17/03/R1888): R | susceptibility category (S/I/R) (host strain YMC17/03/R1888): R | antibiotic susceptibility S/I/R (host strain YMC17/03/R3279): R | susceptibility category (S/I/R) (host strain YMC17/03/R3279): R | antibiotic susceptibility S/I/R (host strain YMC17/03/R4077): R | susceptibility category (S/I/R) (host strain YMC17/03/R4077): R | antibiotic susceptibility S/I/R (host strain YMC17/03/R4607): R | susceptibility category (S/I/R) (host strain YMC17/03/R4607): R | antibiotic susceptibility S/I/R (host strain YMC17/04/R488): R | susceptibility category (S/I/R) (host strain YMC17/04/R488): R | antibiotic susceptibility S/I/R (host strain YMC17/04/R640): R | susceptibility category (S/I/R) (host strain YMC17/04/R640): R | antibiotic susceptibility S/I/R (host strain YMC/17/05/R1095): R | susceptibility category (S/I/R) (host strain YMC/17/05/R1095): R
